Measured values from ChEMBL document CHEMBL5505979, “Novel aminothiazoximone-corbelled ethoxycarbonylpyrimidones with antibiofilm activity to conquer Gram-negative bacteria through potential multitargeting effects” (Eur J Med Chem, 2024).
Converted amounts (≈) assume the structure as drawn. The source made the active and inactive calls. The rule behind the calls is not given here.

Assays:
Pseudomonas aeruginosa = test: Anti-bacterial activity against Pseudomonas aeruginosa ATCC 15442 assessed as inhibition of bacterial growth; type: functional; details: Pseudomonas aeruginosa, ATCC 15442; read-out: MIC
Acinetobacter baumannii [1] = test: Antibiofilm activity against Acinetobacter baumannii assessed as inhibition rate of bio-film formation at 8 times of MIC concentration by Crystal violet assay relative to control; type: functional
Acinetobacter baumannii [2] = test: Reduction in metabolic activity of Acinetobacter baumannii at 2 times of MIC concentration relative to control; type: functional; design: scale not given: the % may be the effect or the level left
Escherichia coli [3] = test: Induction of ROS accumulation in Escherichia coli ATCC 25922 assessed as decrease in GSH activity by measuring reduced GSH to convert to oxidized GSSG at 1/4 to 2 times of MIC by Ellmans metho; type: functional, organism-based
Acinetobacter baumannii [4] = test: Anti-bacterial activity against Acinetobacter baumannii assessed as growth inhibition by measuring optical density measured at 4 time of MIC in presence of 1 times of MIC of norfloxacin by Checkerboard assay (reference value: 0.152); type: functional
Acinetobacter baumannii [5] = test: Anti-bacterial activity against Acinetobacter baumannii assessed as fractional inhibitory concentration measured upto 9 hrs in presence of norfloxacin; type: functional
Acinetobacter baumannii [6] = test: Anti-bacterial activity against Acinetobacter baumannii assessed as growth inhibition by measuring optical density measured at 4 time of MIC in presence of 1/8 times of MIC of norfloxacin by Checkerboard assay (reference value: 0.152); type: functional
Acinetobacter baumannii [7] = test: Anti-bacterial activity against Acinetobacter baumannii assessed as inhibition of bacterial growth measured after 20 passages at sub-MIC concentration by multiple resistance study; type: functional, organism-based
Escherichia coli [8] = test: Anti-bacterial activity against Escherichia coli ATCC 25922 assessed as growth inhibition by measuring optical density measured at 2 time of MIC in presence of 1/8 times of MIC of norfloxacin by Checkerboard assay (reference value: 0.128); type: functional
Staphylococcus aureus [9] = test: Anti-bacterial activity against Staphylococcus aureus ATCC 1708 assessed as inhibition of bacterial growth; type: functional; details: Staphylococcus aureus, ATCC 1708; read-out: MIC
Escherichia coli [10] = test: Reduction of biofilm virulent factors in Escherichia coli ATCC 25922 assessed as decrease in extracellular polymeric substances (EPS) by measuring optical density at 490 nm at 1 times of MIC concentration by congo red binding assay (reference value: 0.028 to 0.031); type: functional
Staphylococcus aureus [11] = test: Anti-bacterial activity against Staphylococcus aureus CMCC (B) 26003 assessed as inhibition of bacterial growth; type: functional
Escherichia coli [12] = test: Induction of intracellular ROS accumulation in Escherichia coli ATCC 25922 assessed as larger green fluorescence densities at 1/4 to 2 times of MIC by microscopic imaging assay; type: functional, organism-based
Escherichia coli [13] = test: Anti-bacterial activity against Escherichia coli ATCC 25922 assessed at fractional inhibitory concentration index measured upto 9 hrs in presence of norfloxacin; type: functional
Staphylococcus aureus [14] = test: Anti-bacterial activity against Staphylococcus aureus ATCC 6538 assessed as inhibition of bacterial growth; type: functional
Escherichia coli [15] = test: Anti-bacterial activity against Escherichia coli JM109 assessed as inhibition of bacterial growth; type: functional
Escherichia coli [16] = test: Anti-bacterial activity against Escherichia coli ATCC 25922 assessed as growth inhibition by measuring optical density measured at 1 time of MIC in presence of 1/8 times of MIC of norfloxacin by Checkerboard assay (reference value: 0.125); type: functional
Staphylococcus aureus [17] = test: Anti-bacterial activity against Staphylococcus aureus CMCC (B) 26001 assessed as inhibition of bacterial growth; type: functional
Acinetobacter baumannii [18] = test: Antibiofilm activity against Acinetobacter baumannii assessed as inhibition rate of bio-film formation at 8 times of MIC concentration in presence of sodium dodecyl sulfate by Crystal violet assay relative to control; type: functional, organism-based
Acinetobacter baumannii [19] = test: Anti-bacterial activity against Acinetobacter baumannii assessed as growth inhibition by measuring optical density measured at 1/2 time of MIC in presence of 1/4 times of MIC of norfloxacin by Checkerboard assay (reference value: 0.152); type: functional
Acinetobacter baumannii [20] = test: Anti-bacterial activity against Acinetobacter baumannii assessed as growth inhibition by measuring optical density measured at 1/4 time of MIC in presence of 1/4 times of MIC of norfloxacin by Checkerboard assay (reference value: 0.152); type: functional
Staphylococcus aureus [21] = test: Anti-bacterial activity against Staphylococcus aureus ATCC 29213 assessed as inhibition of bacterial growth; type: functional; details: Staphylococcus aureus, ATCC 29213; read-out: MIC
Acinetobacter baumannii [22] = test: Anti-bacterial activity against Acinetobacter baumannii assessed as growth inhibition by measuring optical density measured at 1 time of MIC in presence of 1 times of MIC of norfloxacin by Checkerboard assay (reference value: 0.157); type: functional
Escherichia coli [23] = test: Antibiofilm activity against Escherichia coli ATCC 25922 assessed as clearance rate of mature biofilm at 8 times of MIC concentration relative to control; type: functional
[24] = Hemolysis in human RBC assessed as morphological changes of RBC by measuring intact/smooth surface rounded cell surface at 128 times of MIC concentration for 6 hrs by microscopic analysis; type: toxicity, cell-based; details: erythrocyte
Escherichia coli [25] = test: Anti-bacterial activity against Escherichia coli ATCC 25922 assessed as growth inhibition by measuring optical density measured at 1/4 time of MIC in presence of 1/8 times of MIC of norfloxacin by Checkerboard assay (reference value: 0.128); type: functional
Acinetobacter baumannii [26] = test: Reduction of biofilm virulent factors in Acinetobacter baumannii assessed as decrease in extracellular polymeric substances (EPS) by measuring optical density at 490 nm at 1 times of MIC concentration by congo red binding assay (reference value: 0.188 to 0.192); type: functional
Acinetobacter baumannii [27] = test: Reduction in metabolic activity of Acinetobacter baumannii assessed as decrease in fluorescence intensity at 1/4 to 8 times of MIC measured after 6 hrs by resazurin sodium salt assay; type: functional, organism-based
Escherichia coli [28] = test: Anti-bacterial activity against Escherichia coli ATCC 25922 assessed as growth inhibition by measuring optical density measured at 2 time of MIC in presence of 2 times of MIC of norfloxacin by Checkerboard assay (reference value: 0.128); type: functional
Escherichia coli [29] = test: Reduction in metabolic activity of Escherichia coli ATCC 25922 at MIC concentration relative to control; type: functional; design: scale not given: the % may be the effect or the level left
Escherichia coli [30] = test: Anti-bacterial activity against Escherichia coli ATCC 25922 assessed as growth inhibition by measuring optical density measured at 2 time of MIC in presence of 1/4 times of MIC of norfloxacin by Checkerboard assay (reference value: 0.128); type: functional
Escherichia coli [31] = test: Anti-bacterial activity against Escherichia coli ATCC 25922 assessed as growth inhibition by measuring optical density measured at 1 time of MIC in presence of 1 times of MIC of norfloxacin by Checkerboard assay (reference value: 0.125); type: functional
Acinetobacter baumannii [32] = test: Reduction of biofilm virulent factors in Acinetobacter baumannii assessed as decrease in extracellular polymeric substances (EPS) at 2 times of MIC concentration by congo red binding assay relative to control; type: functional; design: scale not given: the % may be the effect or the level left
Acinetobacter baumannii [33] = test: Reduction in metabolic activity of Acinetobacter baumannii assessed as decrease in bacterial lactate dehydrogenase activity at 0.5 to 8 times of MIC concentration; type: functional, organism-based
Escherichia coli [34] = test: Anti-bacterial activity against Escherichia coli ATCC 25922 assessed at fractional inhibitory concentration measured upto 9 hrs in presence of norfloxacin; type: functional

For `CCCCc1nc(Cl)c(C2NC(=O)NC(CN3CCN(C(=O)/C(=N/OC)c4csc(N)n4)CC3)=C2C(=O)OCC)[nH]1` (stereo not given), the MIC (Pseudomonas aeruginosa) was 26 µM (≈ 15.8 µg/mL), the “inhibition (INH)” value (Acinetobacter baumannii [1]) was greater than 70.2% and the Activity (Acinetobacter baumannii [2]) was 66.3%. For the same compound, the Activity (Escherichia coli [3]) was “Active”, the OD (Acinetobacter baumannii [4]) was 0.051 and the FIC (Acinetobacter baumannii [5]) was 0.5. The OD (Acinetobacter baumannii [6]) was 0.118, the Activity (Acinetobacter baumannii [7]) was “Active” and the OD (Escherichia coli [8]) was 0.122. For the same compound, the MIC (Staphylococcus aureus [9]) was 13 µM (≈ 7.91 µg/mL), the OD (Escherichia coli [10]) was 0.071 and the MIC (Staphylococcus aureus [11]) was 26 µM (≈ 15.8 µg/mL). The Activity (Escherichia coli [12]) was “Active”, the “fractional inhibitory concentration index (FICI)” value (Escherichia coli [13]) was 0.75 and the MIC (Staphylococcus aureus [14]) was 7 µM (≈ 4.26 µg/mL). For the same compound, the MIC (Escherichia coli [15]) was 13 µM (≈ 7.91 µg/mL), the OD (Escherichia coli [16]) was 0.121 and the MIC (Staphylococcus aureus [17]) was 26 µM (≈ 15.8 µg/mL). The Activity (Acinetobacter baumannii [18]) was “Active”, the OD (Acinetobacter baumannii [19]) was 0.119 and the OD (Acinetobacter baumannii [20]) was 0.129. For the same compound, the MIC (Staphylococcus aureus [21]) was 26 µM (≈ 15.8 µg/mL), the OD (Acinetobacter baumannii [22]) was 0.052 and the Activity (Escherichia coli [23]) was 37.9%. The Activity [24] was “Non-Toxic”, the OD (Escherichia coli [25]) was 0.122 and the OD (Acinetobacter baumannii [26]) was 0.163. The Activity (Acinetobacter baumannii [27]) was “Active”, the OD (Escherichia coli [28]) was 0.052 and the Activity (Escherichia coli [29]) was 63.6%. The OD (Escherichia coli [30]) was 0.102, the OD (Escherichia coli [31]) was 0.056 and the Activity (Acinetobacter baumannii [32]) was 70.2%. The Activity (Acinetobacter baumannii [33]) was “Active” and the FIC (Escherichia coli [34]) was 0.5.
